Measured values: ChEMBL document CHEMBL1955836, “Isolation and identification of antibacterial neo-compounds from the red ants of ChangBai Mountain, Tetramorium sp” (2012)
≈ marks a conversion by molar mass, not a printed value. Calls of active or inactive are those of the source. The calls are words filed in the database; no cut-off is given here.

Key:
Bacillus subtilis [1] = experiment: Antibacterial activity against Bacillus subtilis ATCC 6633 by Kirby Bauer paper diffusion method; format: functional
Bacillus subtilis [2] = experiment: Antibacterial activity against Bacillus subtilis ATCC 6633 assessed as inhibition zone at 15 ug/mL by Kirby Bauer paper diffusion method; format: functional; conditions: read-out: DIZ
Escherichia coli = experiment: Antibacterial activity against Escherichia coli O157:H7 by Kirby Bauer paper diffusion method; format: functional, organism-based
Bacillus subtilis [3] = experiment: Antibacterial activity against Bacillus subtilis ATCC 6633 assessed as inhibition zone at 25 ug/mL by Kirby Bauer paper diffusion method; format: functional; conditions: read-out: DIZ
Bacillus subtilis [4] = experiment: Antibacterial activity against Bacillus subtilis ATCC 6633 assessed as inhibition zone at 10 ug/mL by Kirby Bauer paper diffusion method; format: functional; conditions: read-out: DIZ

SMILES | MIC (Bacillus subtilis [1]) | zone of inhibition at 15 µg/mL (Bacillus subtilis [2]) | Activity (Escherichia coli) | zone of inhibition at 25 µg/mL (Bacillus subtilis [3]) | zone of inhibition at 10 µg/mL (Bacillus subtilis [4])
O=C(NCCO)c1ccccc1 | 15 µg/mL (≈ 90.8 µM) | 7 mm | inactive | – | –
Cc1c2oc(=O)ccc2cc2c(O)c(C(C)(C)O)oc12 | 25 µg/mL (≈ 91.2 µM) | – | inactive | 4 mm | –
CC1(C)S[C@@H]2[C@H](NC(=O)Cc3ccccc3)C(=O)N2[C@H]1C(=O)[O-].[K+] [PENICILLIN G POTASSIUM] | 10 µg/mL | 20 mm | – | – | 16 mm
O=C(Nc1ccccc1)c1cc(O)c(O)c(O)c1 | 25 µg/mL (≈ 102 µM) | – | inactive | 0 mm | –
O=C1C[C@]2(C=Cc3c(c4ccccc4oc3=O)O2)CN1 | 25 µg/mL (≈ 92.8 µM) | – | inactive | 5 mm | –
C#Cc1ccc(-c2c(C=O)c3ccccc3oc2=O)cc1 | 25 µg/mL (≈ 91.1 µM) | – | inactive | 5 mm | –
